Values joined by “and” are separate entries in the source; they are usually repeats but may differ in a detail not shown here. Identical values can stand only once. Inconclusive results and toxic doses are left out. Rule as the data show it: active = T/C of 150% or more; inactive = T/C below 125%.
Tested on: L1210 leukemia ip in BDF1 mice, survival T/C
Assay: NCI In Vivo Anticancer Drug Screen. Data for tumor model L1210 Leukemia (intraperitoneal) in B6D2F1 (BDF1) mice
Settings: endpoint: mean survival time, higher = longer survival
In short: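 Ratio derived from survival: compound-dosed mice over vehicle-dosed mice, all bearing a transplantable tumor.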

[1] = dose: 100.0 mg/kg/injection, schedule: Q01DX009 (ip), vehicle: saline
[2] = dose: 200.0 mg/kg/injection, schedule: Q01DX009 (ip), vehicle: saline
[3] = dose: 100.0 mg/kg/injection, schedule: Q01DX009 (ip), vehicle: saline with Tween-80
[4] = dose: 100.0 mg/kg/injection, schedule: Q04DX003 (ip), vehicle: Klucel (hydroxypropylcellulose) (HPC)
[5] = dose: 200.0 mg/kg/injection, schedule: Q01DX009 (ip), vehicle: saline with Tween-80
[6] = dose: 200.0 mg/kg/injection, schedule: Q04DX003 (ip), vehicle: Klucel (hydroxypropylcellulose) (HPC)
[7] = dose: 400.0 mg/kg/injection, schedule: Q01DX009 (ip), vehicle: saline with Tween-80
[8] = dose: 400.0 mg/kg/injection, schedule: Q04DX003 (ip), vehicle: Klucel (hydroxypropylcellulose) (HPC)
[9] = dose: 100.0 mg/kg/injection, schedule: Q01DX001 (ip), vehicle: carboxymethylcellulose (CMC)
[10] = dose: 200.0 mg/kg/injection, schedule: Q01DX001 (ip), vehicle: carboxymethylcellulose (CMC)
[11] = dose: 400.0 mg/kg/injection, schedule: Q01DX001 (ip), vehicle: carboxymethylcellulose (CMC)
[12] = dose: 100.0 mg/kg/injection, schedule: Q04DX003 (ip), vehicle: saline with Tween-80
[13] = dose: 200.0 mg/kg/injection, schedule: Q04DX003 (ip), vehicle: saline with Tween-80
[14] = dose: 400.0 mg/kg/injection, schedule: Q04DX003 (ip), vehicle: saline with Tween-80
[15] = dose: 12.5 mg/kg/injection, schedule: Q04DX003 (ip), vehicle: Klucel (hydroxypropylcellulose) (HPC)
[16] = dose: 25.0 mg/kg/injection, schedule: Q01DX009 (ip), vehicle: Klucel (hydroxypropylcellulose) (HPC)
[17] = dose: 25.0 mg/kg/injection, schedule: Q04DX003 (ip), vehicle: Klucel (hydroxypropylcellulose) (HPC)
[18] = dose: 50.0 mg/kg/injection, schedule: Q01DX009 (ip), vehicle: Klucel (hydroxypropylcellulose) (HPC)
[19] = dose: 50.0 mg/kg/injection, schedule: Q04DX003 (ip), vehicle: Klucel (hydroxypropylcellulose) (HPC)
[20] = dose: 100.0 mg/kg/injection, schedule: Q04DX003 (ip), vehicle: saline
[21] = dose: 200.0 mg/kg/injection, schedule: Q04DX003 (ip), vehicle: saline
[22] = dose: 400.0 mg/kg/injection, schedule: Q04DX003 (ip), vehicle: saline
[23] = dose: 50.0 mg/kg/injection, schedule: Q01DX001 (ip), vehicle: carboxymethylcellulose (CMC)

Measured: T/C

CC(C)OC(=O)c1ccc([N+](=O)[O-])cc1
inactive: dose: 100.0 mg/kg/injection, schedule: Q04DX002 (ip), vehicle: Klucel (hydroxypropylcellulose) (HPC) 95 % of control | dose: 200.0 mg/kg/injection, schedule: Q04DX002 (ip), vehicle: Klucel (hydroxypropylcellulose) (HPC) 110 % of control | dose: 400.0 mg/kg/injection, schedule: Q04DX002 (ip), vehicle: Klucel (hydroxypropylcellulose) (HPC) 95 % of control

CC(=O)c1cccc(OCC(O)CN(C(C)C)C(C)C)c1 (stereo not given)
inactive: [1] 98 % of control | [2] 98 % of control

CCC1(O)C2CCCC1CCC2 (stereo not given)
inactive: [3] 97 % of control | [4] 97 % of control | [5] 94 % of control | [6] 92 % of control | [7] 97 % of control | [8] 97 % of control

CCCCC(=O)N/N=C/c1ccc(Cl)cc1
inactive: [9] 93 % of control | [10] 107 % of control | [11] 91 % of control

Cc1ccc(C(=O)C2CC2)c(C)c1
inactive: [3] 105 % of control | [12] 96 % of control | [5] 98 % of control | [13] 95 % of control | [7] 109 % of control | [14] 93 % of control

C(/C=C/C=C/N1CCCCC1)=[N+]1CCCCC1
inactive: dose: 0.39 mg/kg/injection, schedule: Q04DX003 (ip), vehicle: saline 112 % of control | dose: 0.78 mg/kg/injection, schedule: Q04DX003 (ip), vehicle: saline 93 % of control | dose: 1.56 mg/kg/injection, schedule: Q04DX003 (ip), vehicle: saline 105 % of control

COc1ccc(COC(=O)Nc2cc(C(F)(F)F)ccc2Cl)cc1
inactive: [1] 100 % of control | [2] 107 % of control | dose: 400.0 mg/kg/injection, schedule: Q01DX009 (ip), vehicle: saline 105 % of control

CCOC(=O)CC(SP(=S)(Oc1ccccc1)Oc1ccccc1)C(=O)OCC (stereo not given)
inactive: dose: 100.0 mg/kg/injection, schedule: Q04DX002 (sc), vehicle: olive oil, sesame oil, peanut oil 100 % of control | dose: 200.0 mg/kg/injection, schedule: Q04DX002 (sc), vehicle: olive oil, sesame oil, peanut oil 103 % of control | dose: 400.0 mg/kg/injection, schedule: Q04DX002 (sc), vehicle: olive oil, sesame oil, peanut oil 93 % of control

CC12C=CC(=O)C=C1CCC1C2C(O)CC2(C)C1CCC2(O)C(=O)COC(=O)CCCc1ccc(N(CCCl)CCCl)cc1 (stereo not given)
inactive: dose: 12.5 mg/kg/injection, schedule: Q01DX009 (ip), vehicle: Klucel (hydroxypropylcellulose) (HPC) 116 % of control | [15] 97 % of control | dose: 15.0 mg/kg/injection, schedule: Q01DX009 (ip), vehicle: saline with Tween-80 107 % of control | [16] 122 % of control | [17] 110 % of control | dose: 30.0 mg/kg/injection, schedule: Q01DX009 (ip), vehicle: saline with Tween-80 114 % of control | [18] 124 % of control | [19] 109 % of control | dose: 60.0 mg/kg/injection, schedule: Q01DX009 (ip), vehicle: saline with Tween-80 108 % of control | dose: 75.0 mg/kg/injection, schedule: Q01DX001 (sc), vehicle: steriod suspending solution 103 % of control | dose: 150.0 mg/kg/injection, schedule: Q01DX001 (sc), vehicle: steriod suspending solution 111 % of control | dose: 300.0 mg/kg/injection, schedule: Q01DX001 (sc), vehicle: steriod suspending solution 108 % of control

CCOC(=O)c1cc2c3n(c1=O)CCCC3C(c1ccc(Cl)c(Cl)c1)OC2=O (stereo not given)
inactive: dose: 100.0 mg/kg/injection, schedule: Q01DX001 (ip), vehicle: saline 97 % of control | dose: 200.0 mg/kg/injection, schedule: Q01DX001 (ip), vehicle: saline 104 % of control | dose: 400.0 mg/kg/injection, schedule: Q01DX001 (ip), vehicle: saline 92 % of control

CN1CCN(c2ccc(Cl)cc2)CC1
inactive: [16] 97 % of control | [17] 97 % of control | [18] 106 % of control | [19] 105 % of control | dose: 100.0 mg/kg/injection, schedule: Q01DX009 (ip), vehicle: Klucel (hydroxypropylcellulose) (HPC) 100 % of control | [4] 106 % of control

CCCCCCCCC(=O)[O][Hg][c]1ccccc1
inactive: dose: 75.0 mg/kg/injection, schedule: Q01DX001 (ip), vehicle: other 106 % of control

C/C(CCC(=O)OC(C)(C)C)=N\N(C)C
inactive: [20] 93 % of control | [21] 91 % of control | [22] 111 % of control

CCCCCCCNC
inactive: [23] 99 % of control | [9] 99 % of control | [10] 96 % of control

Cc1nc(N)cc(Cl)n1
inactive: [4] 101 % of control | [6] 103 % of control | [8] 90 % of control

CC(C)(C)C1(C)CN(N=O)C(=O)O1 (stereo not given)
inactive: [15] 114 % of control | [17] 104 % of control

CCOC(=O)/C=C(\C)C(C)=O
inactive: [3] 92 % of control | [12] 98 % of control | [5] 96 % of control | [13] 103 % of control | [7] 92 % of control | [14] 104 % of control

COC(=O)c1ccc(=O)n(C/C=C(\C)CCC2OC2(C)C)c1 (stereo not given)
inactive: dose: 100.0 mg/kg/injection, schedule: Q04DX003 (ip), vehicle: water 100 % of control | dose: 200.0 mg/kg/injection, schedule: Q04DX003 (ip), vehicle: water 104 % of control | dose: 400.0 mg/kg/injection, schedule: Q04DX003 (ip), vehicle: water 102 % of control

Nc1nc(N)nc(CCc2nc(N)nc(N)n2)n1
inactive: [23] 95 % of control | [9] 90 % of control | [10] 87 % of control | [11] 92 % of control

C=C(C)/C=C(\C)CC(=C)C
inactive: [20] 97 % of control | [21] 105 % of control | [22] 96 % of control

CCOC(=O)c1ccc2c(ccc3ccccc32)n1
inactive: dose: 25.0 mg/kg/injection, schedule: Q01DX001 (ip), vehicle: carboxymethylcellulose (CMC) 97 % of control | dose: 25.0 mg/kg/injection, schedule: Q01DX009 (ip), vehicle: carboxymethylcellulose (CMC) 98 % of control and 102 % of control | dose: 25.0 mg/kg/injection, schedule: Q04DX002 (ip), vehicle: carboxymethylcellulose (CMC) 93 % of control and 104 % of control | dose: 25.0 mg/kg/injection, schedule: Q04DX003 (ip), vehicle: carboxymethylcellulose (CMC) 108 % of control | [23] 102 % of control | dose: 50.0 mg/kg/injection, schedule: Q01DX009 (ip), vehicle: carboxymethylcellulose (CMC) 94 % of control and 98 % of control | dose: 50.0 mg/kg/injection, schedule: Q04DX002 (ip), vehicle: carboxymethylcellulose (CMC) 97 % of control | dose: 50.0 mg/kg/injection, schedule: Q04DX003 (ip), vehicle: carboxymethylcellulose (CMC) 102 % of control | [9] 94 % of control | dose: 100.0 mg/kg/injection, schedule: Q01DX009 (ip), vehicle: carboxymethylcellulose (CMC) 100 % of control | dose: 100.0 mg/kg/injection, schedule: Q04DX002 (ip), vehicle: carboxymethylcellulose (CMC) 93 % of control and 101 % of control | dose: 100.0 mg/kg/injection, schedule: Q04DX003 (ip), vehicle: carboxymethylcellulose (CMC) 105 % of control

O=C(CC(NC(=O)OCc1ccccc1)c1nn[nH]n1)OCc1ccccc1 (stereo not given)
inactive: [3] 101 % of control | [5] 103 % of control | [7] 90 % of control

N#CCCCC[P+](c1ccccc1)(c1ccccc1)c1ccccc1
inactive: dose: 25.0 mg/kg/injection, schedule: Q01DX009 (ip), vehicle: saline 107 % of control | dose: 50.0 mg/kg/injection, schedule: Q01DX009 (ip), vehicle: saline 93 % of control

BrC#CC1CCCCC1
inactive: [20] 100 % of control | [21] 100 % of control

O=C1c2ccccc2C(=O)N1CN1CCOCC1
inactive: dose: 100.0 mg/kg/injection, schedule: Q01DX001 (ip), vehicle: saline with Tween-80 105 % of control | dose: 200.0 mg/kg/injection, schedule: Q01DX001 (ip), vehicle: saline with Tween-80 94 % of control | dose: 400.0 mg/kg/injection, schedule: Q01DX001 (ip), vehicle: saline with Tween-80 98 % of control
